# In patent publication US10640748B2, “Oligodendroglial cell culturing methods and in methods for treating neurodegenerative disorders by using thyroid hormones or analogues” (NeuOrphan Pty Ltd, priority 2014, dated 2020):
# System: hESC-derived OPCs
# Experiment: Stage VI terminal differentiation of hESC-derived OPCs
# Assay type: cell-based, human
# Method: Stage VI; for terminal differentiation, these cells were plated onto poly-L-ornithine (10 μg/mL, Sigma-Aldrich) and mouse laminin (10 μg/mL, Life technologies) coated plates in N2/B27 medium supplemented with T3 (50 ng/mL, Sigma-Aldrich) for 21 days to induce pre-OLs.
compound,measurement,value
"N[C@@H](Cc1cc(I)c(Oc2ccc(O)c(I)c2)c(I)c1)C(=O)O [T3, Triiodothyronine]",terminal differentiation of OPCs into O4+ pre-OLs and MBP+ pre-myelinating OLs,promoted terminal differentiation
